This is an account of results in patent US9617256B2 (priority 2007, dated 2017).

Values after ≈ are worked out from the molar mass of the structure shown.

One test relates to APAE001 (ATCC27853). Briefly: MIC broth microdilution, APAE001. It counts as cell-based, P. aeruginosa. The settings on record: Pseudomonas aeruginosa, ATCC27853, read-out: MIC APAE001, APAE001 is ATCC27853. The gist of the method:
(§1)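 MICs come from broth microdilution in cation-adjusted Mueller-Hinton broth, final inoculum 3×10^5–7×10^5 CFU/mL, 18-24 hours at 35° C. Levofloxacin and QC strains served as assay controls.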

The test system of test [1] is ASAU001 (laboratory strain of S. aureus, ATCC29213). Briefly: MIC broth microdilution, ASAU001. It counts as cell-based. The following applies: Staphylococcus aureus, ATCC29213, read-out: MIC ASAU001. The gist of the method: as §1
Background: Broth dilution looks for growth in wells or tubes with falling amounts of substance.

A further test concerns AECO001 HSA AGP. Briefly: MIC broth microdilution, AECO001 HSA AGP. It counts as cell-based, E. coli. The following applies: Escherichia coli. The method, boiled down:
as §1

For test [2], the system named is AABA1060 (clinical isolate of Acinetobacter baumannii). In words: MIC broth microdilution, AABA1060. It counts as cell-based. The settings on record: Acinetobacter baumannii, read-out: MIC AABA1060. The gist of the method:
as §1

The subject of test [3] is AECO063 (ATCC25922 bearing an acrAB mutation). Briefly: microbe, parasite or virus in culture. It counts as cell-based, E. coli. The following applies: Escherichia coli, ATCC25922, read-out: MIC AECO063. The method, boiled down:
as §1

The next test relates to AECO001 (ATCC25922). In words: MIC broth microdilution, AECO001. The settings on record: Escherichia coli, ATCC25922, read-out: MIC AECO001. It counts as cell-based, E. coli. The method, boiled down:
as §1

Test [4] relates to APAE006 (strain of P. aeruginosa in which all efflux pumps are inactivated). Briefly: microbe, parasite or virus in culture. The following applies: Pseudomonas aeruginosa, read-out: MIC APAE006, P. aeruginosa, all efflux pumps inactivated. It counts as cell-based. The method, boiled down:
(§2)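 Growth inhibition was scored by CLSI broth microdilution using cation-adjusted Mueller-Hinton broth and a final inoculum between 3×10^5 and 7×10^5 CFU/mL, incubated 18-24 hours at 35° C.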

Test [5] concerns APAE006 in the presence of 8 micrograms per milliliter of polymyxin B nonapeptide. It counts as cell-based, P. aeruginosa. The settings on record: in the presence of 8 micrograms per milliliter of polymyxin B nonapeptide. The gist of the method:
as §2

As to `C[C@@H](N)[C@H](NC(=O)c1ccc(C#Cc2ccc(CNC3CCCC3)cc2)cc1)C(=O)NO` [Example 118-6], the MIC in the test with APAE001 (ATCC27853) was < 2 µg/mL; in test [1], 16 to 64 µg/mL (≈ 36.8 to 147 µM); against AECO001 HSA AGP, 2 to 16 µg/mL (≈ 4.6 to 36.8 µM); in test [2], 16 to 64 µg/mL (≈ 36.8 to 147 µM); in test [3], < 2 µg/mL; in the test with AECO001 (ATCC25922) it was 2 to 16 µg/mL (≈ 4.6 to 36.8 µM). Further, the MIC in test [4] was < 2 µg/mL. In test [5], the “MIC APAE006 + PMBN” value is listed as “A (MIC's of 2.0 μg/mL or less = A)”.

As for `C[C@@H](N)[C@H](NC(=O)c1ccc(C#Cc2ccc(CN3CCCOCC3)cc2)cc1)C(=O)NO` [Example 118-7], the MIC in the test on APAE001 (ATCC27853) is < 2 µg/mL; in test [1] it was 16 to 64 µg/mL (≈ 35.5 to 142 µM); in the test on AECO001 HSA AGP it was 2 to 16 µg/mL (≈ 4.44 to 35.5 µM); in test [2], 2 to 16 µg/mL (≈ 4.44 to 35.5 µM); in test [3], < 2 µg/mL; with AECO001 (ATCC25922) it was < 2 µg/mL. Moreover, the MIC in test [4] was < 2 µg/mL. For the same compound, in test [5], the “MIC APAE006 + PMBN” value is listed as “A (MIC's of 2.0 μg/mL or less = A)”.

For `C[C@@H](N)[C@H](NC(=O)c1ccc(C#Cc2ccc(CNCCC#N)cc2)cc1)C(=O)NO` [Example 118-8], the MIC in the test on APAE001 (ATCC27853) is < 2 µg/mL; in test [1], 16 to 64 µg/mL (≈ 38.1 to 153 µM); against AECO001 HSA AGP, 2 to 16 µg/mL (≈ 4.77 to 38.1 µM); in test [2], 2 to 16 µg/mL (≈ 4.77 to 38.1 µM); in test [3], < 2 µg/mL; in the test with AECO001 (ATCC25922), < 2 µg/mL. For the same compound, in test [4], the MIC was < 2 µg/mL. Moreover, the “MIC APAE006 + PMBN” value in test [5] was “A (MIC's of 2.0 μg/mL or less = A)”.

`C[C@@H](N)[C@H](NC(=O)c1ccc(C#Cc2ccc(CNCCF)cc2)cc1)C(=O)NO` [Example 118-9]: the MIC with APAE001 (ATCC27853) is < 2 µg/mL; in test [1], 16 to 64 µg/mL (≈ 38.8 to 155 µM); against AECO001 HSA AGP it was 2 to 16 µg/mL (≈ 4.85 to 38.8 µM); in test [2] it was 2 to 16 µg/mL (≈ 4.85 to 38.8 µM); in test [3] it was < 2 µg/mL; in the test on AECO001 (ATCC25922), < 2 µg/mL. Moreover, the MIC in test [4] was < 2 µg/mL. In test [5], the “MIC APAE006 + PMBN” value is listed as “A (MIC's of 2.0 μg/mL or less = A)”.

On to `C[C@@H](N)[C@H](NC(=O)c1ccc(C#Cc2ccc(CNCC(F)F)cc2)cc1)C(=O)NO` [Example 119-1, N-((1S,2R)-2-Amino-1-hydroxycarbamoyl-propyl)-4-{4-[(2,2-difluoro-ethylamino)-methyl]-phenylethynyl}-benzamide], for which the MIC with APAE001 (ATCC27853) was < 2 µg/mL; in test [1] it was 16 to 64 µg/mL (≈ 37.2 to 149 µM); in the test on AECO001 HSA AGP it was 2 to 16 µg/mL (≈ 4.65 to 37.2 µM); in test [2], 2 to 16 µg/mL (≈ 4.65 to 37.2 µM); in test [3] it was < 2 µg/mL; with AECO001 (ATCC25922), < 2 µg/mL. Also, the MIC in test [4] was < 2 µg/mL. In test [5], the “MIC APAE006 + PMBN” value was “A (MIC's of 2.0 μg/mL or less = A)”.

Consider `C[C@@H](N)[C@H](NC(=O)c1ccc(C#Cc2ccc(CNC3CCC3)cc2)cc1)C(=O)NO` [Example 119-2], for which the MIC in the test with APAE001 (ATCC27853) was < 2 µg/mL; in test [1], > 64 µg/mL; with AECO001 HSA AGP, 16 to 64 µg/mL (≈ 38 to 152 µM); in test [2], > 64 µg/mL; in test [3] it was 2 to 16 µg/mL (≈ 4.76 to 38 µM); in the test on AECO001 (ATCC25922), 2 to 16 µg/mL (≈ 4.76 to 38 µM). Further, the MIC in test [4] is < 2 µg/mL. For the same compound, the “MIC APAE006 + PMBN” value in test [5] was “A (MIC's of 2.0 μg/mL or less = A)”.

Consider `C[C@@H](N)[C@H](NC(=O)c1ccc(C#Cc2ccc(CNCc3nccn3C)cc2)cc1)C(=O)NO` [Example 119-3], for which the MIC was 2 to 16 µg/mL (≈ 4.34 to 34.7 µM) with APAE001 (ATCC27853); > 64 µg/mL in test [1]; 2 to 16 µg/mL (≈ 4.34 to 34.7 µM) against AECO001 HSA AGP; 16 to 64 µg/mL (≈ 34.7 to 139 µM) in test [2]; < 2 µg/mL in test [3]; 2 to 16 µg/mL (≈ 4.34 to 34.7 µM) in the test on AECO001 (ATCC25922). The MIC in test [4] is < 2 µg/mL. Besides, the “MIC APAE006 + PMBN” value in test [5] was “A (MIC's of 2.0 μg/mL or less = A)”.

For the compound `CCNCc1ccc(C#Cc2ccc(C(=O)N[C@H](C(=O)NO)[C@@H](C)N)cc2)cc1` [Example 119-6], the MIC in the test on APAE001 (ATCC27853) is < 2 µg/mL; in test [1], 16 to 64 µg/mL (≈ 40.6 to 162 µM); with AECO001 HSA AGP, 2 to 16 µg/mL (≈ 5.07 to 40.6 µM); in test [2], 16 to 64 µg/mL (≈ 40.6 to 162 µM); in test [3], < 2 µg/mL; with AECO001 (ATCC25922), 2 to 16 µg/mL (≈ 5.07 to 40.6 µM). Besides, the MIC in test [4] is < 2 µg/mL. Also, in test [5], the “MIC APAE006 + PMBN” value is “A (MIC's of 2.0 μg/mL or less = A)”.
